Source: patent publication US20240173440A1, “HIGH PURITY COPPER RADIOPHARMACEUTICAL COMPOSITIONS AND DIAGNOSTIC AND THERAPEUTIC USES THEREOF” (Nuclidium AG, priority 2022, published 2024)

Legend:
[1] = Remaining PET activity in the mouse body 4h p.i.; format: in vivo; settings: mice
Protocol: PET/CT Imaging: Mice bearing FAP-positive and FAP-negative xenografts were injected intravenously with ^61Cu-labeled radioligands of the present disclosure or ^61Cu-NODAGA-FAPI-46 (100 μL/[…]/6-12 MBq). […] The mice were euthanized by CO2 at 4 hours p.i., and static PET scans were acquired for 30 min.
Remaining PET activity in the mouse body 4h p.i. prior to the 4h scan was determined (Table 36).

hFAP = hFAP (Homo sapiens (Human), UniProt Q12884); experiment: Saturation binding on isolated HEK-293.hFAP cell membranes; design: Bmax: unit not given here; settings: 37° C.
Chain of hFAP (Q12884 whole entry): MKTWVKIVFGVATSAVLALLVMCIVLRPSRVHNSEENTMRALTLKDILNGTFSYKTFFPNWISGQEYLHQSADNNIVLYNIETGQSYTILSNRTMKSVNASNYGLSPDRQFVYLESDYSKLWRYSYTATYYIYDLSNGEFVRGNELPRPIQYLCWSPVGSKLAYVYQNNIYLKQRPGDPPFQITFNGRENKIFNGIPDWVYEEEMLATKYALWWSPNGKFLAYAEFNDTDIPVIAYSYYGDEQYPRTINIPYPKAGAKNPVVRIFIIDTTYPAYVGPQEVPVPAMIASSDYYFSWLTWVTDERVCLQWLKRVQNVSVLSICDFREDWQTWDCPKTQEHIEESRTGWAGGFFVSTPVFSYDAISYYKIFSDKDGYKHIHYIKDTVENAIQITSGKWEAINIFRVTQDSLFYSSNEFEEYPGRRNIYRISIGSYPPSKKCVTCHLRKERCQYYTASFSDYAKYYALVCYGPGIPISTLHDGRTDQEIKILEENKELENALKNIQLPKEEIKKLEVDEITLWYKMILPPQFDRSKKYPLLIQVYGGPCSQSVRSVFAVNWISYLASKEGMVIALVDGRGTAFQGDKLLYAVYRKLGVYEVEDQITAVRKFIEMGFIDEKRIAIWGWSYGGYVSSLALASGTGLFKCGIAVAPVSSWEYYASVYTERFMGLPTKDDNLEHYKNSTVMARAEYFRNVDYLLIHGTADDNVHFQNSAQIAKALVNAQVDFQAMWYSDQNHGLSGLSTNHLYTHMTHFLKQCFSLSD
Protocol: The cells were homogenized using Ultra-Turrax, and the homogenized suspension was centrifuged at 500×g for 10 min at 4° C. The supernatant was collected in centrifuge tubes (Beckman Coulter Inc., Brea, CA, USA). This procedure was then repeated 5 times. The collected supernatant was centrifuged in an ultra-centrifuge (Beckman) at 4° C. for 55 min at 49,000×g. Then, the pellet was re-suspended in 10 mM ice-cold HEPES buffer (pH 7.5), aliquoted, and stored at −80° C. The protein concentration of those membrane suspensions was determined by the Bradford method, BSA as the standard.
Each assay tube contained 170 μL of binding buffer (20 mM HEPES, pH 7.4, containing 4 mM μgCl2, 0.2% BSA, 20 μg/L bacitracin, 20 μg/L PMSF and 200,000 KIU/L aprotinin). The incubation was initiated by adding 30 μL of radioligand solution at 10 times the final concentration and 100 μL of cell membrane suspension to yield 10 μg of protein per well. For the determination of the non-specific binding, 140 μL of the above binding buffer was added along with 30 μL of FAPI-46 to obtain (0.1 mM). Bound fractions were plotted versus the corresponding radioligand concentration at equilibrium. The dissociation constant (KD) and maximal binding capacity (Bmax) values were calculated using GraphPad Software Inc., Prism 7, San Diego, CA, USA (Table 33 and FIG. 21).

HT-1080.hFAP cells = experiment: In vitro cellular uptake (cell surface and internalized fractions) in HT-1080.hFAP cells; format: cell-based, human
Protocol: (§1) The cellular uptake was studied in vitro using intact cells seeded in 6-well plates overnight. On the day of the experiment, the cells were washed and incubated with each of the exemplified [^61Cu]Cu-radiotracer at different time points, either alone or in the presence of a blocking agent to distinguish between specific and non-specific uptake. At each investigated time point, the medium containing the unbound (free) radiotracer was removed, followed by two washing steps with ice-cold phosphate-buffered saline. The cells were then treated 2×5 min with ice-cold glycine solution (0.05 M, pH 2.8) to detach the cell surface-bound radiotracer (acid released). Afterwards, the cells containing the internalized radiotracer were detached with 1 M NaOH at 37° C. and collected for measurement. The amount of specific cell surface-bound and internalized radiotracer is expressed as percentage of the total applied activity, after subtracting the non-specific values.
as §1, with “^61Cu-labeled conjugate” for “of the exemplified [^61Cu]Cu-radiotracer”
The cells were then preconditioned in 360 μL of assay medium (MEM medium without supplements) at 37° C. for 60 min. 40 μL of a 2 nM solution of ^61Cu-labeled radioligand was added and the cells were incubated at 37° C. The cellular uptake was interrupted at different time points (15 min, 1 hour and 4 hours), by washing twice with ice-cold PBS. Cell surface-bound radioligand was obtained by washing cells twice with ice-cold glycine buffer (pH 2.8), followed by a collection of the internalized fraction with 1 M NaOH. The activity in each fraction was measured in a γ-counter (Cobra II).

[2] = test system: HT-1080.hFAP and HT-1080.wt xenografts; experiment: Quantitative biodistribution in HT-1080.hFAP and HT-1080.wt xenografted mice; format: in vivo; settings: for Biodistribution HT-1080.wt: FAP-negative tumor; for Biodistribution HT-1080.hFAP: FAP-positive tumor
Protocol: The tumors were allowed to grow to an average volume of 100-200 mm3.
Biodistribution Studies: The xenografted mice were randomized (n=5 per group) and injected intravenously via the tail vein with the ^61Cu-labeled radioligands (100 μL, […], 0.8-1MBq). Mice were euthanized 1h and 4h pi. by CO2 asphyxiation. Organs of interest and blood were collected, rinsed of excess blood, blotted dry, weighed, and counted in a […]. The samples were counted against a suitably diluted aliquot of the injected solution as the standard and the results are expressed as the percentage of the injected activity per gram of tissue (0% I.A./g)+SD.

[3] = 15 min, HT-1080.hFAP cells, specific uptake (minus HT-1080.wt)
[4] = 240 min, HT-1080.hFAP cells, specific uptake (minus HT-1080.wt)
[5] = 1 h p.i., HT-1080.hFAP and HT-1080.wt xenografts
[6] = 4 h p.i., HT-1080.hFAP and HT-1080.wt xenografts
[7] = HT-1080.hFAP and HT-1080.wt xenografts

For CN(C(=O)CCC(=O)N1CCN(C(=O)CC[C@H](C(=O)O)N2CCN3CCN(CC2)CC(=O)[O][61Cu][O]C(=O)C3)CC1)c1ccc2nccc(C(=O)NCC(=O)N3CC(F)(F)C[C@H]3C#N)c2c1 [[^61Cu]Cu-NODAGA-F4], the “retention in the body (remaining PET activity)” value [1] was “lowest value”, the Bmax (hFAP) was 9.1-9.8 and the Cell surface fraction (HT-1080.hFAP cells; [3]) was 1.0 ± 0.7 % of the applied activity. The Cell surface fraction (HT-1080.hFAP cells; [4]) was 0.9 ± 0.6 % of the applied activity, the Cell surface fraction (HT-1080.hFAP cells; Time Point 15 min, 0.2 nM) was 1.0 ± 0.7 percentage of the total applied activity and the Cell surface fraction (HT-1080.hFAP cells; Time Point 240 min, 0.2 nM) was 0.9 ± 0.6 percentage of the total applied activity. The “Biodistribution Heart” value ([2]; 1 hour p.i.) was 0.6 ± 0.0 % I.A./g, the “Biodistribution Intestine” value ([2]; 1 hour p.i.) was 0.5 ± 0.2 % I.A./g and the “Biodistribution Liver” value ([2]; 1 hour p.i.) was 0.6 ± 0.1 % I.A./g. For the same molecule, the “Biodistribution Lung” value ([2]; 1 hour p.i.) was 0.9 ± 0.1 % I.A./g, the “Biodistribution Muscle” value ([2]; 1 hour p.i.) was 0.8 ± 0.2 % I.A./g and the “Biodistribution Spleen” value ([2]; 1 hour p.i.) was 0.4 ± 0.0 % I.A./g. The “Biodistribution Stomach” value ([2]; 1 hour p.i.) was 0.5 ± 0.0 % I.A./g, the “Biodistribution Adrenal” value [2, 5] was 1.1 ± 0.2 % IA/g and the “Biodistribution Blood” value [2, 5] was 1.4 ± 0.1 % IA/g. The “Biodistribution Femur” value [2, 5] was 3.2 ± 0.8 % IA/g, the “Biodistribution HT1080.hFAP (FAP-positive tumor)” value (shortened to “Biodistribution HT1080.hFAP”) [2, 5] was 7.4 ± 1.6 % IA/g and the “Biodistribution HT1080.wt (FAP-negative tumor)” value (“Biodistribution HT1080.wt” for short) [2, 5] was 1.7 ± 0.2 % IA/g. The “Biodistribution Heart” value [2, 5] was 0.6 ± 0.0 % IA/g, the “Biodistribution Intestine” value [2, 5] was 0.5 ± 0.2 % IA/g and the “Biodistribution Kidney” value [2, 5] was 1.8 ± 0.2 % IA/g. For the same molecule, the “Biodistribution Liver” value [2, 5] was 0.6 ± 0.1 % IA/g, the “Biodistribution Lung” value [2, 5] was 0.9 ± 0.1 % IA/g and the “Biodistribution Muscle” value [2, 5] was 0.8 ± 0.2 % IA/g. For the same molecule, the “Biodistribution Pancreas” value [2, 5] was 1.1 ± 0.1 % IA/g, the “Biodistribution Spleen” value [2, 5] was 0.4 ± 0.0 % IA/g and the “Biodistribution Stomach” value [2, 5] was 0.5 ± 0.0 % IA/g. The “Biodistribution Adrenal” value ([2]; 4 hours p.i.) was 0.5 ± 0.1 % I.A./g, the “Biodistribution Blood” value ([2]; 4 hours p.i.) was 0.4 ± 0.1 % I.A./g and the “Biodistribution Heart” value ([2]; 4 hours p.i.) was 0.2 ± 0.0 % I.A./g. For the same molecule, the “Biodistribution Intestine” value ([2]; 4 hours p.i.) was 0.3 ± 0.1 % I.A./g, the “Biodistribution Liver” value ([2]; 4 hours p.i.) was 0.4 ± 0.0 % I.A./g and the “Biodistribution Lung” value ([2]; 4 hours p.i.) was 0.3 ± 0.0 % I.A./g. For the same molecule, the “Biodistribution Muscle” value ([2]; 4 hours p.i.) was 0.4 ± 0.1 % I.A./g, the “Biodistribution Pancreas” value ([2]; 4 hours p.i.) was 0.4 ± 0.1 % I.A./g and the “Biodistribution Spleen” value ([2]; 4 hours p.i.) was 0.2 ± 0.0 % I.A./g. The “Biodistribution Stomach” value ([2]; 4 hours p.i.) was 0.2 ± 0.0 % I.A./g, the “Biodistribution Adrenal” value [2, 6] was 0.5 ± 0.1 % IA/g and the “Biodistribution Blood” value [2, 6] was 0.4 ± 0.1 % IA/g. For the same molecule, the “Biodistribution Femur” value [2, 6] was 1.2 ± 0.1 % IA/g, the “Biodistribution HT1080.hFAP” value [2, 6] was 3.0 ± 0.8 % IA/g and the “Biodistribution HT1080.wt” value [2, 6] was 0.6 ± 0.0 % IA/g. The “Biodistribution Heart” value [2, 6] was 0.2 ± 0.0 % IA/g, the “Biodistribution Intestine” value [2, 6] was 0.3 ± 0.1 % IA/g and the “Biodistribution Kidney” value [2, 6] was 1.1 ± 0.1 % IA/g. The “Biodistribution Liver” value [2, 6] was 0.4 ± 0.0 % IA/g, the “Biodistribution Lung” value [2, 6] was 0.3 ± 0.0 % IA/g and the “Biodistribution Muscle” value [2, 6] was 0.4 ± 0.1 % IA/g. The “Biodistribution Pancreas” value [2, 6] was 0.4 ± 0.1 % IA/g, the “Biodistribution Spleen” value [2, 6] was 0.2 ± 0.0 % IA/g and the “Biodistribution Stomach” value [2, 6] was 0.2 ± 0.0 % IA/g. The “Biodistribution HT-1080.wt” value ([2]; 1 hour p.i.) was 1.7 ± 0.2 % I.A./g, the “Biodistribution HT-1080.wt” value ([2]; 4 hours p.i.) was 0.6 ± 0.0 % I.A./g and the “Biodistribution HT-1080.hFAP” value ([2]; 1 hour p.i.) was 7.4 ± 1.6 % I.A./g. For the same molecule, the “Biodistribution HT-1080.hFAP” value ([2]; 4 hours p.i.) was 3.0 ± 0.8 % I.A./g and the “accumulation in tumor and target-positive tissues” value [2, 7] was “high accumulation in FAP-positive (HT-1080.hFAP) tumor and murine-FAP-positive tissues”.
With CN(CCCN1CCN(C(=O)CCC(C(=O)O)N2CCN3CCN(CC2)CC(=O)[O][61Cu][O]C(=O)C3)CC1)c1ccc2nccc(C(=O)NCC(=O)N3CC(F)(F)C[C@H]3C#N)c2c1 (stereo partly shown) [[^61Cu]Cu-NODAGA-FAPI-46] the “retention in the body (remaining PET activity)” value [1] was “highest retention in the body”, the Bmax (hFAP) was 9.0-10.3 and the Cell surface fraction (HT-1080.hFAP cells; [3]) was 0.9 ± 0.3 % of the applied activity. The Internalized fraction (HT-1080.hFAP cells; [4]) was 50.0 ± 6.0 % of the applied activity, the Cell surface fraction (HT-1080.hFAP cells; Time Point 15 min, 0.2 nM) was 0.9 ± 0.3 percentage of the total applied activity and the Internalized fraction (HT-1080.hFAP cells; Time Point 240 min, 0.2 nM) was 50.0 ± 6.0 percentage of the total applied activity. The “Biodistribution Adrenal” value [2, 5] was 2.2 ± 0.1 % IA/g, the “Biodistribution Blood” value [2, 5] was 2.6 ± 0.1 % IA/g and the “Biodistribution Femur” value [2, 5] was 6.5 ± 0.4 % IA/g. The “Biodistribution HT1080.hFAP” value [2, 5] was 8.4 ± 1.4 % IA/g, the “Biodistribution HT1080.wt” value [2, 5] was 3.1 ± 0.0 % IA/g and the “Biodistribution Heart” value [2, 5] was 1.1 ± 0.0 % IA/g. For the same molecule, the “Biodistribution Intestine” value [2, 5] was 1.0 ± 0.4 % IA/g, the “Biodistribution Kidney” value [2, 5] was 1.5 ± 0.1 % IA/g and the “Biodistribution Liver” value [2, 5] was 0.9 ± 0.0 % IA/g. For the same molecule, the “Biodistribution Lung” value [2, 5] was 1.5 ± 0. % IA/g, the “Biodistribution Muscle” value [2, 5] was 1.7 ± 0.1 % IA/g and the “Biodistribution Pancreas” value [2, 5] was 2.0 ± 0.2 % IA/g. The “Biodistribution Spleen” value [2, 5] was 0.7 ± 0.1 % IA/g, the “Biodistribution Stomach” value [2, 5] was 1.0 ± 0.1 % IA/g and the “Biodistribution Adrenal” value [2, 6] was 2.0 ± 0.2 % IA/g. The “Biodistribution Blood” value [2, 6] was 1.5 ± 0.1 % IA/g, the “Biodistribution Femur” value [2, 6] was 4.6 ± 0.4 % IA/g and the “Biodistribution HT1080.hFAP” value [2, 6] was 7.7 ± 0.4 % IA/g. The “Biodistribution HT1080.wt” value [2, 6] was 2.5 ± 0.2 % IA/g, the “Biodistribution Heart” value [2, 6] was 0.7 ± 0.1 % IA/g and the “Biodistribution Intestine” value [2, 6] was 0.6 ± 0.2 % IA/g. The “Biodistribution Kidney” value [2, 6] was 1.0 ± 0.1 % IA/g, the “Biodistribution Liver” value [2, 6] was 0.8 ± 0.2 % IA/g and the “Biodistribution Lung” value [2, 6] was 1.0 ± 0.1 % IA/g. For the same molecule, the “Biodistribution Muscle” value [2, 6] was 1.4 ± 0.2 % IA/g, the “Biodistribution Pancreas” value [2, 6] was 1.6 ± 0.1 % IA/g and the “Biodistribution Spleen” value [2, 6] was 0.5 ± 0.1 % IA/g. The “Biodistribution Stomach” value [2, 6] was 0.6 ± 0.1 % IA/g and the “accumulation in tumor and target-positive tissues” value [2, 7] was “high accumulation in FAP-positive (HT-1080.hFAP) tumor and murine-FAP-positive tissues”.
